Experimental data from patent publication US10385057B2, “Pyrazole compounds and methods of making and using same” (Lundbeck La Jolla Research Center, Inc., priority 2015, dated 2019).

Legend:
MAGL = target: T1, MAGL (Mus musculus, UniProt O35678); experiment: In vitro competitive activity-based protein profiling, mouse MAGL; format: biochemical; settings: for inhibition at 1 µM: read-out: MAGL % inh. 1 μM (mouse)
T1 construct: mouse brain membrane fraction or cell lysates for mouse assays; from tissue
T1 sequence (O35678 1-303): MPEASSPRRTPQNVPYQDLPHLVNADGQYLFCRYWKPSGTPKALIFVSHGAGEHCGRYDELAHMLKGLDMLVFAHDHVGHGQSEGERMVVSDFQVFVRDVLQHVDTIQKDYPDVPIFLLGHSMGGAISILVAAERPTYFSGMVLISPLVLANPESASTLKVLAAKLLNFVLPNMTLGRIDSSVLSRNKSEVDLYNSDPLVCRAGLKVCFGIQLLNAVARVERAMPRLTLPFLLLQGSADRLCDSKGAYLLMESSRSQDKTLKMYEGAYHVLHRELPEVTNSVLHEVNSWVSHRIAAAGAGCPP
In short: (§1)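 Mouse brain membranes or cell lysates (mouse) and human prefrontal cortex or cell membrane fractions (human), 1.0 mg/mL protein, preincubated with inhibitor 30 min at 37 °C, then FP-Rh or HT-01 probe 30 min at 37 °C. SDS-PAGE; MAGL and FAAH activity from in-gel fluorescence band intensity.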

FAAH = target: T2, FAAH (Mus musculus, UniProt O08914); experiment: In vitro competitive activity-based protein profiling, mouse FAAH; format: biochemical; settings: for inhibition at 1 µM: read-out: FAAH % inh. 1 μM (mouse)
T2 construct: mouse brain membrane fraction or cell lysates for mouse assays; from tissue
T2 sequence (O08914 1-579): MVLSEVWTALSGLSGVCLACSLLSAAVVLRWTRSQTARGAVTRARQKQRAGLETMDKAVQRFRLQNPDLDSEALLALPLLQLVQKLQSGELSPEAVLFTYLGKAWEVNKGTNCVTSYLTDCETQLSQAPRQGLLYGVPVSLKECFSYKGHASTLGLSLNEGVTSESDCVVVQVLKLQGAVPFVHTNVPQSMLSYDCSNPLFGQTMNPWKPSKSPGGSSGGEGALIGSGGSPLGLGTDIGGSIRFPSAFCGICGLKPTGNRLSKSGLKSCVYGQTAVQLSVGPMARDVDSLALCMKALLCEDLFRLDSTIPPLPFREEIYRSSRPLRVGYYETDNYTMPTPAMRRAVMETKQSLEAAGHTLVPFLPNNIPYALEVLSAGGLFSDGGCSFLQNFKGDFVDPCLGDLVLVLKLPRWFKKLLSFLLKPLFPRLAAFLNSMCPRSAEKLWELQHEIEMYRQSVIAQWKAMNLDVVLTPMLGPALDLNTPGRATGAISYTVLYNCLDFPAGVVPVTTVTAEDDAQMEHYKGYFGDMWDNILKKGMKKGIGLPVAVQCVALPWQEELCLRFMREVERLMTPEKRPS
In short: as §1

Row | SMILES | inhibition at 1 µM (MAGL) [%] | inhibition at 1 µM (FAAH) [%] | IC50 (MAGL) [µM] | IC50 (FAAH) [µM] | inhibition at 10 µM (MAGL; 10 μM, read-out: MAGL % inh. at 10 μM (mouse)) [%] | inhibition at 10 µM (FAAH; 10 μM, read-out: FAAH % inh. at 10 μM (mouse)) [%]
1 | CN(Cc1ccc(C(F)(F)F)cc1)[C@H]1C[C@@H]2CN(C(=O)n3cc(C(=O)N4CCOCC4)cn3)C[C@@H]2C1 [Example 184, (trans-5-(methyl(4-(trifluoromethyl)benzyl)amino)hexahydrocyclopenta[c]pyrrol-2(1H)-yl)(4-(morpholine-4-carbonyl)-1H-pyrazol-1-yl)methanone] | 50 to 75 | ≥ 75 | – | – | – | –
2 | CN(Cc1ccc(C(F)(F)F)cc1)[C@H]1C[C@@H]2CN(C(=O)n3cc(C(=O)N4CCN(C5CC5)CC4)cn3)C[C@@H]2C1 [Example 186, (4-cyclopropylpiperazin-1-yl)(1-(trans-5-(methyl(4-(trifluoromethyl)benzyl)amino)octahydrocyclopenta[c]pyrrole-2-carbonyl)-1H-pyrazol-4-yl)methanone] | ≥ 75 | ≥ 75 | – | – | – | –
3 | O=C(O)c1cnn(C(=O)N2CC3CN(Cc4cccc(Oc5ccccc5)c4)CC3C2)c1 (stereo not shown) [Example 187, 1-(5-(3-phenoxybenzyl)octahydropyrrolo[3,4-c]pyrrole-2-carbonyl)-1H-pyrazole-4-carboxylic acid] | 50 to 75 | ≥ 75 | – | – | – | –
4 | O=C(c1cnn(C(=O)N2CC3CN(Cc4ccc(Oc5ccc(Cl)cc5)cc4)CC3C2)c1)N1CCCC1 (stereo not shown) [Example 189, (5-(4-(4-chlorophenoxy)benzyl)hexahydropyrrolo[3,4-c]pyrrol-2(1H)-yl)(4-(pyrrolidine-1-carbonyl)-1H-pyrazol-1-yl)methanone] | 50 to 75 | ≥ 75 | 0.1 to 1 | ≤ 0.1 | – | –
5 | CN(Cc1ccc(-c2cccnn2)cc1C(F)(F)F)[C@@H]1C[C@@H]2CN(C(=O)n3cc(C(N)=O)cn3)C[C@@H]2C1 [Example 191, 1-(cis-5-(methyl(4-(pyridazin-3-yl)-2-(trifluoromethyl)benzyl)amino)octahydrocyclopenta[c]pyrrole-2-carbonyl)-1H-pyrazole-4-carboxamide] | ≥ 75 | ≥ 75 | – | – | – | –
6 | NC(=O)c1cnn(C(=O)N2CC[C@@]3(CCN(Cc4cc(Cl)cc(C(F)(F)F)c4)C3)C2)c1 [Example 192, (R)-1-(7-(3-chloro-5-(trifluoromethyl)benzyl)-2,7-diazaspiro[4.4]nonane-2-carbonyl)-1H-pyrazole-4-carboxamide] | – | – | ≤ 0.1 | ≤ 0.1 | – | –
7 | NC(=O)c1cnn(C(=O)N2CC[C@]3(CCN(Cc4cc(Cl)cc(C(F)(F)F)c4)C3)C2)c1 [Example 193, (S)-1-(7-(3-chloro-5-(trifluoromethyl)benzyl)-2,7-diazaspiro[4.4]nonane-2-carbonyl)-1H-pyrazole-4-carboxamide] | – | – | ≤ 0.1 | ≤ 0.1 | – | –
8 | NC(=O)c1cnn(C(=O)N2CC[C@@]3(CCN(Cc4ccc(N5CCOCC5)cc4C(F)(F)F)C3)C2)c1 [Example 194, (R)-1-(7-(4-morpholino-2-(trifluoromethyl)benzyl)-2,7-diazaspiro[4.4]nonane-2-carbonyl)-1H-pyrazole-4-carboxamide] | ≥ 75 | ≥ 75 | – | – | – | –
9 | O=C(c1cnn(C(=O)N2CC3CN(Cc4cccc(Oc5ccc(Cl)cc5)c4)CC3C2)c1)N1CCOCC1 (stereo not shown) [Example 199, (5-(3-(4-chlorophenoxy)benzyl)hexahydropyrrolo[3,4-c]pyrrol-2(1H)-yl)(4-(morpholine-4-carbonyl)-1H-pyrazol-1-yl)methanone] | 25 to 50 | ≥ 75 | 1 to 10 | ≤ 0.1 | – | –

Continued, values first:

Row | inhibition at 1 µM (MAGL) [%] | inhibition at 1 µM (FAAH) [%] | IC50 (MAGL) [µM] | IC50 (FAAH) [µM] | inhibition at 10 µM (MAGL; 10 μM, read-out: MAGL % inh. at 10 μM (mouse)) [%] | inhibition at 10 µM (FAAH; 10 μM, read-out: FAAH % inh. at 10 μM (mouse)) [%] | SMILES
10 | 0 to 25 | ≥ 75 | – | – | 50 | 100 | O=C(c1cnn(C(=O)N2CC3CN(Cc4ccc(Oc5ccc(Cl)cc5)cc4)CC3C2)c1)N1CCOCC1 (stereo not shown) [Example 200, (5-(4-(4-chlorophenoxy)benzyl)hexahydropyrrolo[3,4-c]pyrrol-2(1H)-yl)(4-(morpholine-4-carbonyl)-1H-pyrazol-1-yl)methanone]
11 | ≥ 75 | ≥ 75 | – | – | – | – | NC(=O)c1cnn(C(=O)N2CCC3(CCN(Cc4ccc(-c5nccs5)cc4Cl)C3)C2)c1 (stereo not shown) [Example 201, 1-(7-(2-chloro-4-(thiazol-2-yl)benzyl)-2,7-diazaspiro[4.4]nonane-2-carbonyl)-1H-pyrazole-4-carboxamide]
12 | ≥ 75 | ≥ 75 | – | – | – | – | NC(=O)c1cnn(C(=O)N2CCC3(CCN(Cc4ccc(Cl)c(Cl)c4)C3)C2)c1 (stereo not shown) [Example 202, 1-(7-(3,4-dichlorobenzyl)-2,7-diazaspiro[4.4]nonane-2-carbonyl)-1H-pyrazole-4-carboxamide]
13 | ≥ 75 | ≥ 75 | – | – | – | – | NC(=O)c1cnn(C(=O)N2CCC3(CCN(Cc4ccc(N5CCCC5)cc4C(F)(F)F)C3)C2)c1 (stereo not shown) [Example 203, 1-(7-(4-(pyrrolidin-1-yl)-2-(trifluoromethyl)benzyl)-2,7-diazaspiro[4.4]nonane-2-carbonyl)-1H-pyrazole-4-carboxamide]
14 | ≥ 75 | ≥ 75 | – | – | – | – | NC(=O)c1cnn(C(=O)N2CCC3(CCN(Cc4ccc(N5CCOCC5)cc4Cl)C3)C2)c1 (stereo not shown) [Example 204, 1-(7-(2-chloro-4-morpholinobenzyl)-2,7-diazaspiro[4.4]nonane-2-carbonyl)-1H-pyrazole-4-carboxamide]
15 | ≥ 75 | ≥ 75 | – | – | – | – | NC(=O)c1cnn(C(=O)N2CCC3(CCN(Cc4ccc(N5CCCC5)cc4Cl)C3)C2)c1 (stereo not shown) [Example 205, 1-(7-(2-chloro-4-(pyrrolidin-1-yl)benzyl)-2,7-diazaspiro[4.4]nonane-2-carbonyl)-1H-pyrazole-4-carboxamide]
16 | ≥ 75 | ≥ 75 | – | – | – | – | NC(=O)c1cnn(C(=O)N2CCC3(CCN(Cc4ccc(N5CCOCC5)c(C(F)(F)F)c4)C3)C2)c1 (stereo not shown) [Example 206, 1-(7-(4-morpholino-3-(trifluoromethyl)benzyl)-2,7-diazaspiro[4.4]nonane-2-carbonyl)-1H-pyrazole-4-carboxamide]
17 | ≥ 75 | ≥ 75 | – | – | – | – | NC(=O)c1cnn(C(=O)N2CCC3(CCN(Cc4ccc(N5CCCC5)c(C(F)(F)F)c4)C3)C2)c1 (stereo not shown) [Example 207, 1-(7-(4-(pyrrolidin-1-yl)-3-(trifluoromethyl)benzyl)-2,7-diazaspiro[4.4]nonane-2-carbonyl)-1H-pyrazole-4-carboxamide]
18 | ≥ 75 | ≥ 75 | – | – | – | – | NC(=O)c1cnn(C(=O)N2CCC3(CCN(Cc4ccc(C(F)(F)F)c(N5CCOCC5)c4)C3)C2)c1 (stereo not shown) [Example 208, 1-(7-(3-morpholino-4-(trifluoromethyl)benzyl)-2,7-diazaspiro[4.4]nonane-2-carbonyl)-1H-pyrazole-4-carboxamide]
19 | ≥ 75 | ≥ 75 | – | – | – | – | NC(=O)c1cnn(C(=O)N2CCC3(CCN(Cc4ccc(C(F)(F)F)c(N5CCCC5)c4)C3)C2)c1 (stereo not shown) [Example 209, 1-(7-(3-(pyrrolidin-1-yl)-4-(trifluoromethyl)benzyl)-2,7-diazaspiro[4.4]nonane-2-carbonyl)-1H-pyrazole-4-carboxamide]
20 | ≥ 75 | ≥ 75 | – | – | – | – | NC(=O)c1cnn(C(=O)N2CCC3(CCN(Cc4cc(N5CCCC5)cc(C(F)(F)F)c4)C3)C2)c1 (stereo not shown) [Example 211, 1-(7-(3-(pyrrolidin-1-yl)-5-(trifluoromethyl)benzyl)-2,7-diazaspiro[4.4]nonane-2-carbonyl)-1H-pyrazole-4-carboxamide]
